Laboratory results reported in the NIST ThermoML archive (doi:10.1021/acs.jced.8b00854).
Numbers after ± are expanded uncertainties.

Tests used:
[1] = xn = mol fraction of the nth substance listed; conditions: 100 kPa, Liquid, Vibrating tube method
[2] = refractive index (Na D-line) (dimensionless); xn = mol fraction of the nth substance listed; conditions: 100 kPa, Liquid, Standard Abbe refractometry

Molecule CCn1cc[n+](C)c1.O=S(=O)([O-])C(F)(F)F [1-ethyl-3-methylimidazolium trifluoromethanesulfonate] + O has a mass density ([1]; 293.15 K, x1 = 0.1001) of 1209.27 ± 2.1 kg/m3, a mass density ([1]; 293.15 K, x1 = 0.2002) of 1281.52 ± 2 kg/m3 and a mass density ([1]; 293.15 K, x1 = 0.3005) of 1315.51 ± 2 kg/m3. For the same molecule, the mass density ([1]; 293.15 K, x1 = 0.4002) was 1336.6 ± 2 kg/m3, the mass density ([1]; 293.15 K, x1 = 0.5003) was 1352.45 ± 2 kg/m3 and the mass density ([1]; 293.15 K, x1 = 0.5997) was 1364.43 ± 2 kg/m3. It also gave a mass density ([1]; 293.15 K, x1 = 0.6996) of 1372.69 ± 2 kg/m3, a mass density ([1]; 293.15 K, x1 = 0.8011) of 1379.1 ± 2 kg/m3 and a mass density ([1]; 293.15 K, x1 = 0.8992) of 1384.17 ± 2 kg/m3. For the same molecule, the mass density ([1]; 303.15 K, x1 = 0.1001) was 1201.8 ± 2.1 kg/m3, the mass density ([1]; 303.15 K, x1 = 0.2002) was 1272.85 ± 2 kg/m3 and the mass density ([1]; 303.15 K, x1 = 0.3005) was 1307.15 ± 2 kg/m3. It also gave a mass density ([1]; 303.15 K, x1 = 0.4002) of 1328.01 ± 2 kg/m3, a mass density ([1]; 303.15 K, x1 = 0.5003) of 1343.96 ± 2 kg/m3 and a mass density ([1]; 303.15 K, x1 = 0.5997) of 1356.16 ± 2 kg/m3. The mass density ([1]; 303.15 K, x1 = 0.6996) was 1364.59 ± 2 kg/m3, the mass density ([1]; 303.15 K, x1 = 0.8011) was 1370.87 ± 2 kg/m3 and the mass density ([1]; 303.15 K, x1 = 0.8992) was 1375.74 ± 2 kg/m3. It also gave a mass density ([1]; 313.15 K, x1 = 0.1001) of 1193.23 ± 2.1 kg/m3, a mass density ([1]; 313.15 K, x1 = 0.2002) of 1263.86 ± 2 kg/m3 and a mass density ([1]; 313.15 K, x1 = 0.3005) of 1298.67 ± 2 kg/m3. For the same molecule, the mass density ([1]; 313.15 K, x1 = 0.4002) was 1319.89 ± 2 kg/m3, the mass density ([1]; 313.15 K, x1 = 0.5003) was 1335.41 ± 2 kg/m3 and the mass density ([1]; 313.15 K, x1 = 0.5997) was 1347.44 ± 2 kg/m3. The mass density ([1]; 313.15 K, x1 = 0.6996) was 1355.79 ± 2 kg/m3, the mass density ([1]; 313.15 K, x1 = 0.8011) was 1362.45 ± 2 kg/m3 and the mass density ([1]; 313.15 K, x1 = 0.8992) was 1367.34 ± 2 kg/m3. For the same molecule, the mass density ([1]; 323.15 K, x1 = 0.1001) was 1184.96 ± 2.1 kg/m3, the mass density ([1]; 323.15 K, x1 = 0.2002) was 1254.13 ± 2 kg/m3 and the mass density ([1]; 323.15 K, x1 = 0.3005) was 1289.63 ± 2 kg/m3. It also gave a mass density ([1]; 323.15 K, x1 = 0.4002) of 1311.02 ± 2 kg/m3, a mass density ([1]; 323.15 K, x1 = 0.5003) of 1326.85 ± 2 kg/m3 and a mass density ([1]; 323.15 K, x1 = 0.5997) of 1338.82 ± 2 kg/m3. It also gave a mass density ([1]; 323.15 K, x1 = 0.6996) of 1347.42 ± 2 kg/m3, a mass density ([1]; 323.15 K, x1 = 0.8011) of 1353.98 ± 2 kg/m3 and a mass density ([1]; 323.15 K, x1 = 0.8992) of 1359.01 ± 2 kg/m3. It also gave a mass density ([1]; 333.15 K, x1 = 0.1001) of 1175.32 ± 2.1 kg/m3, a mass density ([1]; 333.15 K, x1 = 0.2002) of 1243.01 ± 2 kg/m3 and a mass density ([1]; 333.15 K, x1 = 0.3005) of 1279.6 ± 2 kg/m3. The mass density ([1]; 333.15 K, x1 = 0.4002) was 1301.89 ± 2 kg/m3, the mass density ([1]; 333.15 K, x1 = 0.5003) was 1318.27 ± 2 kg/m3 and the mass density ([1]; 333.15 K, x1 = 0.5997) was 1329.91 ± 2 kg/m3. It also gave a mass density ([1]; 333.15 K, x1 = 0.6996) of 1338.78 ± 2 kg/m3, a mass density ([1]; 333.15 K, x1 = 0.8011) of 1345.55 ± 2 kg/m3 and a mass density ([1]; 333.15 K, x1 = 0.8992) of 1350.72 ± 2 kg/m3. For the same molecule, the mass density ([1]; 343.15 K, x1 = 0.1001) was 1162.52 ± 2.1 kg/m3, the mass density ([1]; 343.15 K, x1 = 0.2002) was 1232.07 ± 2 kg/m3 and the mass density ([1]; 343.15 K, x1 = 0.3005) was 1269.41 ± 2 kg/m3. It also gave a mass density ([1]; 343.15 K, x1 = 0.4002) of 1292.35 ± 2 kg/m3, a mass density ([1]; 343.15 K, x1 = 0.5003) of 1309.53 ± 2 kg/m3 and a mass density ([1]; 343.15 K, x1 = 0.5997) of 1321.23 ± 2 kg/m3. For the same molecule, the mass density ([1]; 343.15 K, x1 = 0.6996) was 1330.17 ± 2 kg/m3, the mass density ([1]; 343.15 K, x1 = 0.8011) was 1336.93 ± 2 kg/m3 and the mass density ([1]; 343.15 K, x1 = 0.8992) was 1342.48 ± 2 kg/m3. For the same molecule, the refractive index ([2]; 293.15 K, x1 = 0.1001) was 1.3885 ± 0.0019, the refractive index ([2]; 293.15 K, x1 = 0.2002) was 1.406 ± 0.0016 and the refractive index ([2]; 293.15 K, x1 = 0.3005) was 1.4155 ± 0.0016. The refractive index ([2]; 293.15 K, x1 = 0.4002) was 1.421 ± 0.0017, the refractive index ([2]; 293.15 K, x1 = 0.5003) was 1.425 ± 0.0016 and the refractive index ([2]; 293.15 K, x1 = 0.5997) was 1.4275 ± 0.0016. It also gave a refractive index ([2]; 293.15 K, x1 = 0.6996) of 1.43 ± 0.0016, a refractive index ([2]; 293.15 K, x1 = 0.8011) of 1.4315 ± 0.0016 and a refractive index ([2]; 293.15 K, x1 = 0.8992) of 1.4325 ± 0.0017. For the same molecule, the refractive index ([2]; 303.15 K, x1 = 0.1001) was 1.3865 ± 0.0016, the refractive index ([2]; 303.15 K, x1 = 0.2002) was 1.4055 ± 0.0016 and the refractive index ([2]; 303.15 K, x1 = 0.3005) was 1.414 ± 0.0016. It also gave a refractive index ([2]; 303.15 K, x1 = 0.4002) of 1.4175 ± 0.0017, a refractive index ([2]; 303.15 K, x1 = 0.5003) of 1.423 ± 0.0016 and a refractive index ([2]; 303.15 K, x1 = 0.5997) of 1.4255 ± 0.0016. The refractive index ([2]; 303.15 K, x1 = 0.6996) was 1.4275 ± 0.0016, the refractive index ([2]; 303.15 K, x1 = 0.8011) was 1.4295 ± 0.0016 and the refractive index ([2]; 303.15 K, x1 = 0.8992) was 1.43 ± 0.0016. For the same molecule, the refractive index ([2]; 313.15 K, x1 = 0.1001) was 1.386 ± 0.0016, the refractive index ([2]; 313.15 K, x1 = 0.2002) was 1.403 ± 0.0016 and the refractive index ([2]; 313.15 K, x1 = 0.3005) was 1.412 ± 0.0016. For the same molecule, the refractive index ([2]; 313.15 K, x1 = 0.4002) was 1.415 ± 0.0016, the refractive index ([2]; 313.15 K, x1 = 0.5003) was 1.421 ± 0.0016 and the refractive index ([2]; 313.15 K, x1 = 0.5997) was 1.4235 ± 0.0016. It also gave a refractive index ([2]; 313.15 K, x1 = 0.6996) of 1.4255 ± 0.0016, a refractive index ([2]; 313.15 K, x1 = 0.8011) of 1.427 ± 0.0016 and a refractive index ([2]; 313.15 K, x1 = 0.8992) of 1.4285 ± 0.0016. The refractive index ([2]; 323.15 K, x1 = 0.1001) was 1.3855 ± 0.0016, the refractive index ([2]; 323.15 K, x1 = 0.2002) was 1.4025 ± 0.0016 and the refractive index ([2]; 323.15 K, x1 = 0.3005) was 1.411 ± 0.0016. The refractive index ([2]; 323.15 K, x1 = 0.4002) was 1.414 ± 0.0016, the refractive index ([2]; 323.15 K, x1 = 0.5003) was 1.42 ± 0.0016 and the refractive index ([2]; 323.15 K, x1 = 0.5997) was 1.422 ± 0.0017. For the same molecule, the refractive index ([2]; 323.15 K, x1 = 0.6996) was 1.4235 ± 0.0016, the refractive index ([2]; 323.15 K, x1 = 0.8011) was 1.4255 ± 0.0016 and the refractive index ([2]; 323.15 K, x1 = 0.8992) was 1.426 ± 0.0017. For the same molecule, the refractive index ([2]; 333.15 K, x1 = 0.1001) was 1.385 ± 0.0016, the refractive index ([2]; 333.15 K, x1 = 0.2002) was 1.4005 ± 0.0016 and the refractive index ([2]; 333.15 K, x1 = 0.3005) was 1.4095 ± 0.0016. It also gave a refractive index ([2]; 333.15 K, x1 = 0.4002) of 1.413 ± 0.0016, a refractive index ([2]; 333.15 K, x1 = 0.5003) of 1.418 ± 0.0016 and a refractive index ([2]; 333.15 K, x1 = 0.5997) of 1.418 ± 0.0016. For the same molecule, the refractive index ([2]; 333.15 K, x1 = 0.6996) was 1.421 ± 0.0016, the refractive index ([2]; 333.15 K, x1 = 0.8011) was 1.423 ± 0.0016 and the refractive index ([2]; 333.15 K, x1 = 0.8992) was 1.4237 ± 0.0017. The refractive index ([2]; 343.15 K, x1 = 0.1001) was 1.385 ± 0.0022, the refractive index ([2]; 343.15 K, x1 = 0.2002) was 1.3995 ± 0.0016 and the refractive index ([2]; 343.15 K, x1 = 0.3005) was 1.409 ± 0.0016. For the same molecule, the refractive index ([2]; 343.15 K, x1 = 0.4002) was 1.413 ± 0.0016, the refractive index ([2]; 343.15 K, x1 = 0.5003) was 1.417 ± 0.0016 and the refractive index ([2]; 343.15 K, x1 = 0.5997) was 1.4175 ± 0.0016. It also gave a refractive index ([2]; 343.15 K, x1 = 0.6996) of 1.419 ± 0.0016, a refractive index ([2]; 343.15 K, x1 = 0.8011) of 1.421 ± 0.0017 and a refractive index ([2]; 343.15 K, x1 = 0.8992) of 1.4215 ± 0.0017.
